This is an account of results in patent publication US5002948A, “3-[4-[4-substituted-1-piperazinyl]-1-butyl]-1H-2,3-dihydroindoles” (H. Lundbeck A/S, priority 1988, dated 1991).

Each structure is given as a SMILES string.

Assay [1] addresses T1, 5-HT1A (Rattus norvegicus, UniProt P19327).
T1 sequence (P19327 1-422): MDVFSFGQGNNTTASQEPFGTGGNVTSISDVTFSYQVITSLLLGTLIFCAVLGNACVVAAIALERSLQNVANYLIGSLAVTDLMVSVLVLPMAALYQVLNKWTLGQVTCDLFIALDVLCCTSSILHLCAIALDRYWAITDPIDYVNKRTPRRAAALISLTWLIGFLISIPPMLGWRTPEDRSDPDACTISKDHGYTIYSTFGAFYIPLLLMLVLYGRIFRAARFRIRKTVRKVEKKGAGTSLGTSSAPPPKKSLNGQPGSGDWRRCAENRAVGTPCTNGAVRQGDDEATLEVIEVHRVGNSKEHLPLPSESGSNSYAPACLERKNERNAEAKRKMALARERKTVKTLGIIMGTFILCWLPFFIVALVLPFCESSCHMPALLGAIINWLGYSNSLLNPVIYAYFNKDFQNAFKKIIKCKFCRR
Briefly: Antagonism of the discriminative stimulus properties induced by 8-OHDPAT in rats. As to conditions: rat, sc, s.c. before 8-OHDPAT; rats trained at 0.4 mg/kg i.p.; inhibition of drug responding; read-out: ED50, 8-OH DPAT cue antagonism. It is filed as in vivo, Male Wistar rats. Details: from tissue; host or cells: whole living animal, male Wistar rats, s.c. dosing. As for the experimental part:
ANTAGONISM OF THE DISCRIMINATIVE STIMULUS PROPERTIES INDUCED BY 8-OHDPAT IN RATS.
This test model is used to determine the antagonist effects of a test compound on 5-HT1A receptors in vivo. A related method is described by Tricklebank, M. D., J. Neill, E. J. Kidd and J. R. Fozard, Eur. J. Pharmacol. 133, 47-56, 1987; Arnt. J., Pharmacology & Toxicology 64, 165-172, 1989.
Male Wistar rats are trained to discriminate between 8-OHDPAT (0.4 mg/kg, i.p., 15 min. pretreatment) and physiological saline in operant chambers equipped with two response levers. Between the levers a dipper is placed, where water rewards (0.1 ml) are presented. The rats are water deprived for at least 24 h and work in a fixed ratio (FR) schedule (final FR=32).
Following 8-OHDPAT administration responding is reinforced only on a designated (drug) lever, whereas responding on the opposite lever has no consequences. Following saline administration responding is reinforced on the lever opposite to the drug lever. Drug and saline trials alternate randomly between training days, although the same treatment is given maximally at 3 consecutive days. The level of discrimination occuracy is expressed as the per cent drug responses and is calculated as the number of correct responses×100 divided by the sum of the correct and incorrect responses before the first reward. When stable occuracy (mean correct responding=90 per cent; individual rats at least 75 per cent correct responding) is obtained test sessions are included between training days. Test compound is injected s.c. at appropriate time before 8-OHDPAT and the test begins 15 min after 8-OHDPAT injection. The test trial is terminated when a total of 32 responses are made on either lever or when 20 min have elapsed. No reward is given and the rats have free access to water for 20-30 min after the test. The effects are expressed as per cent inhibition of drug responding. Only results from rats making at least 10 responses on one lever are included in data analysis. Furthermore, only test sessions in which at least half of the rats respond are included.
The per cent inhibition of drug response obtained for each dose of test compound is used to calculate ED50 values by log-probit analysis.

Assay [2] deals with T1, 5-HT1A. Briefly: Generalization to discriminative stimulus properties induced by 8-OHDPAT in rats (agonism). It is filed as in vivo, Male Wistar rats. Also on record: from tissue; host or cells: whole living animal, male Wistar rats, s.c. dosing. The settings on record: rat, sc, usually 30 or 45 min before test; substituted for 8-OHDPAT; per cent drug response; read-out: ED50, 8-OH DPAT cue agonism. An excerpt: GENERALIZATION TO DISCRIMINATIVE STIMULUS PROPERTIES INDUCED BY 8-OHDPAT IN RATS.
This test model is used to determine the agonist effects of a test compound on 5-HT1A receptors in vivo. A related method is described by Tricklebank, M. D., J. Neill, E. J. Kidd and J. R. Fozard, Eur. J. Pharmacol. 133, 37-56, 1987; Arnt, J., Pharmacology & Toxicology 64, 165-172, 1989.
The procedure is the same as for the antagonism test mentioned above, except that the test compound is substituted for 8-OHDPAT and injected s.c. usually 30 minutes or 45 minutes respectively before beginning of the test.
The per cent drug response obtained for each dose of test compound is used to calculate ED50 values by log-probit analysis.

In assay [3] the target is T1, 5-HT1A. The experiment in a line: Inhibition of 5-methoxy-N,N-dimethyltryptamine (5-MeODMT) induced 5-HT syndrome in rats. It is filed as in vivo, Male Wistar rats. As to conditions: rat, sc. Details: Male Wistar rats (Mol:Wist) weighing 170-240 g are used; from tissue; host or cells: whole living animal, male Wistar rats (Mol:Wist), s.c. dosing. An excerpt:
INHIBITION OF 5-METHOXY-N,N-[…] INDUCED 5-HT SYNDROME IN RATS
The so-called 5-HT syndrome is a characteristic behaviour pattern which is induced by 5-HT agonists with effects on 5-HT, possibly 5-HT1A receptors, although lack of specific antagonists make it difficult to evaluate specificity (Smith, L. M. and S. J. Peroutka, Pharmacol. Biochem. & Behaviour 24, 1513-1519, 1986; Tricklebank, M. et al., Eur. J. Pharmacol. 117, 15-24, 1985).
Male Wistar rats (Mol:Wist) weighing 170-240 g are used. Test substrate is injected subcutaneously 30 min. before 5-methoxy-N,N-dimethyltryptamine 5 mg/kg, s.c. Four rats are used for each dose. A control group pretreated with saline is included each test day. Ten, 15 and 20 min later the rats are observed for presence of serotonin (5-HT) syndrome: (1) forepaw treading ("piano playing"), (2) head weaving and (3) hindleg abduction. Further, flat motility is scored. Each part of the syndrome is scored as follows: marked effect (score 2), weak syndrome (score 1) and no effect (score 0). The scores of the three observation times are added. Thus the maximum obtainable score for four rats is 24. The effect of the test substance is expressed as per cent inhibition relative to the control group.
The per cent inhibition of the piano playing syndrome is used as the response, and ED50 values are calculated by log-prohibit analysis.

The target of assay [4] is T2, serotonin 5-HT1A receptors (Rattus norvegicus, UniProt P19327).
T2 construct: membranes from rat brain minus cerebellum; from tissue; host or cells: brain minus cerebellum of male Wistar (Mol:Wist) rats, membranes
T2 sequence (P19327 1-422): T1 sequence (P19327 1-422)
The experiment in a line: Inhibition of 3H-8-OHDPAT binding to serotonin 5-HT1A receptors in rat brain in vitro. As to conditions: 3H-8-OHDPAT 1 nM, rat brain membranes minus cerebellum, 37° C., 15 min; read-out: IC50 (3H 8-OH DPAT binding). The method, then: INHIBITION OF ^3 H-8-OHDPAT BINDING TO SEROTONIN 5-HT1A RECEPTORS IN A RAT BRAIN IN VITRO
By this method the inhibition by drugs of the binding of ^3 H-8-OHDPAT (1 nM) to serotonin 5-HT1A receptors in membranes from rat brain minus cerebellum is determined in vitro.
Male Wistar (Mol:Wist) rats (125-250 g) are sacrificed and the brain is dissected and weighed. The brain tissue minus cerebellum is homogenized (Ultra Turrax, 20 sec) in 10 ml of ice cold 50 mM Tris buffer pH 8.0 (at 25° C.) containing 120 mM NaCl, 4 mM CaCl2 and 4 mM MgCl2. The homogenate is centrifuged at 20,000 g for 10 min at 4° C. The pellet is homogenized in 10 ml of buffer and incubated at 37° C. for 10 min. The homogenate is centrifuged as above and the pellet is homogenized in 100 vol (w/v) ice cold buffer containing 10 μ M of parglyine.
Incubation tubes kept on ice in triplicate receive 100 μl of drug solution in water (or water for total binding) and 1000 μ l of tissue suspension (final tissue content corresponds to 10 mg original tissue). The binding experiment is initiated by addition of 100 μ l of ^3 H-8-OHDPAT (final concentration 1 nM) and by placing the tubes in a 37° C. water bath. After incubation for 15 min the samples are filtered under vacuum (0-50 mBar) through Whatman GF/F filters ([…]). The tubes are rinsed with 5 ml ice cold 0.9% NaCl which are then poured on the filters. Thereafter, the filters are washed with 2×5 ml 0.9% NaCl. The filters are placed in counting vials and 4 ml of appropriate scintillation fluid (e.g. Picofluor™15) are added. After shaking for 1 h and storage 2 h in the dark the content of radioactivity is determined by liquid scintillation counting. Specific binding is obtained by subtracting the nonspecific binding in the presence of 10 μ M of 5-HT.
For determination of the inhibition of binding five concentrations of drugs covering 3 decades are used.
The IC50 -value is determined as the concentration, at which the binding is 50% of the total binding in control samples minus the nonspecific binding in the presence of 10 μM of 5-HT.
^3 H-8-OHDPAT from Amersham International plc. England. Specific activity approximately 200 Ci/mmol).

As for `O=C1CC2(CCCC2)CC(=O)N1CCCCN1CCN(c2ncccn2)CC1` [buspirone, reference compound], the ED50 in assay [1] was greater than 0.8 µmol/kg; in assay [2], 0.62 µmol/kg; in assay [3] it was 4.3 µmol/kg.
Consider `O=C1c2ccccc2S(=O)(=O)N1CCCCN1CCN(c2ncccn2)CC1` [ipsapirone, reference compound], for which the IC50 in assay [4] amounted to 17 nM. The ED50 was 1.8 µmol/kg in assay [2] and 26 µmol/kg in assay [3].
